This is an account of results in PMC10154249, “Unique progerin C-terminal peptide ameliorates Hutchinson–Gilford progeria syndrome phenotype by rescuing BUBR1” (Nature Aging, 2023).

Values joined by “and” are separate entries in the source; they are usually repeats but may differ in a detail not shown here. Identical values can stand only once.

In assay [1] the test system is Lmna^G609G/G609G mice. Nature of the assay: Bodyweight of Lmna^G609G/G609G mice. The assay is classed as in vivo, mouse. To be noted: 20 mg kg^–1 i.p. every other day from 14 days of age. From the text:
All animal experiments were approved by the Ethics Committee of School of Life Sciences, Northeast Normal University, China (AP20191011) and carried out in accordance with the relevant guidelines: National Standards of the People’s Republic of China (GB/T 35892–2018), Laboratory Animal—Guideline for Ethical Review of Animal Welfare. We generated a mouse model (ICR background), carrying the Lmna^G609G using the BE4-Gam system. The protocols for the BE4-Gam system and microinjection of pronuclear-stage embryos have been described in detail previously[37],[38],[59]. Briefly, a mixture of BE4-Gam mRNA (200 ng μl^–1) and sgRNA-Lmna (30 ng μl^–1) was coinjected into the cytoplasm of pronuclear-stage embryos of the mouse. The injected embryos were transferred to embryo culture medium for 30–60 min, followed by transferring the injected embryos into the recipient mother. The embryos continued to develop and the founder mice (referred to as F0) were born: wild-type mice (Lmna^+/+), heterozygous mice (Lmna^G609G/+) and homozygous mice (Lmna^G609G/G609G). […]
For UPCP injection, 14-day-old Lmna^G609G/G609G mice were injected intraperitoneally with either PBS or UPCP (20 mg kg^–1, every other day) and wild-type mice were injected with PBS. […] Bodyweight and lifespan were monitored after UPCP treatment. The survival rate was analyzed by the Kaplan–Meier method. […]

The test system of assay [2] is Lmna^G609G/G609G mice. Nature of the assay: Open field test. Format: in vivo, mouse. To be noted: for Distance: LmnaG609G/G609G-UPCP, one line per mouse. The method, then: (§1) For UPCP injection, 14-day-old Lmna^G609G/G609G mice were injected intraperitoneally with either PBS or UPCP (20 mg kg^–1, every other day) and wild-type mice were injected with PBS. All phenotypic analyses were performed after 12 weeks of treatment with UPCP. Bodyweight and lifespan were monitored after UPCP treatment. The survival rate was analyzed by the Kaplan–Meier method. We only included mice that were of sufficient bodyweight at the start of the experiment, typically at least 80% of the average littermate weight of the same sex and genotype. All animals meeting criteria for inclusion were then divided randomly into three groups according to genotype (Lmna^+/+, Lmna^G609G/G609G-Mock and Lmna^G609G/G609G-UPCP).
The mice were acclimated to the testing room for 2 h before the test. Before each individual trial, the testing apparatus was cleaned with 75% ethanol. Mice were placed individually in a random corner of the box (40 × 40 × 35 cm) facing the wall. Their movements, indicating locomotor activity, were recorded with a video camera for 20 min and were analyzed with Ethovision XT 10 (Noldus).

Assay [3] has as its system skin of Lmna^G609G/G609G mice. Description: Histology of skin (epidermis, subcutaneous fat layers). Format: in vivo, mouse. To be noted: 13 weeks; for subcutaneous fat layers, Mean / subcutaneous fat layers: 20 mg kg^–1 i.p. The method, then: as §1, with “All phenotypic analyses were performed after 12 weeks of treatment with UPCP.” left out
For histological analyses, mice of the indicated genotypes were perfused with PBS, then with 4% paraformaldehyde (PFA). Whole organs were incubated in 4% PFA at 4 °C for 16 h. All samples were paraffin embedded and sectioning by Servicebio. Subsequently, the tissues were deparaffinized and rehydrated before hematoxylin-eosin (HE) or Masson staining or immunohistochemistry (IHC). HE staining was performed using an HE Kit (Absin, catalog no. abs9217), and Masson staining was performed using Masson’s Trichrome Stain Kit (Absin, catalog no. abs9347) according to the manufacturer’s instructions. The thickness of the layers or the areas of fibrosis in the tissues were calculated using ImageJ software by a blinded investigator. For IHC, the sections were completed by the Servicebio. The images were acquired by a microscope (Leica DMi8) and analyzed with Leica Application Suite X v.3.6.0.24 (Leica). For BubR1, cytoplasmic staining in cells was scored on the intensity of staining and the proportion of positive cells by a blinded investigator. The intensity of the staining was graded as 0 (negative, no color), 1 (low positive, light yellow), 2 (positive, brown yellow) or 3 (high positive, brown), and the number of positive cells was graded as 0 (<5%), 1 (5–25%), 2 (25–50%), 3 (51–75%) or 4 (>75%). The final score was defined as staining number score multiplied by staining color score. For lamin B1, p21 or IL-6, the proportion of positive cells was used to quantify the expression of protein in tissues by a blinded investigator.

The subject of assay [4] is BUBR1 binding to BUB3 and CDC20. Description: CoIP of BUBR1 and SAC proteins BUB3 and CDC20 in HEK-293T cells. The assay is classed as cell-based. To be noted: UPCP 18 μM, nocodazole 200 ng ml^–1. The method, then:
Detailed descriptions of CoIP were described previously[55],[56]. Cells were harvested and washed three times in cold PBS, then lysed in CoIP buffer (25 mM Tris-HCl (pH 7.5), 150 mM KCl, 5 mM EDTA, and 0.5% NP-40) plus protease inhibitor cocktail tablet (Roche). Incubate on ice and shock lysates on the vortex shaker 15 times for 30 s each. Microcentrifuge in 12,000g for 15 min at 4 °C, collect the supernatant, and incubate with 3 μg primary antibodies with gentle shaking overnight at 4 °C, followed by adding 20–40 μl Pure Proteome Protein A/G Mix Magnetic Beads (Millipore, catalog no. […]02) for 3 h. Wash the beads three times with 1 ml CoIP buffer for 8 min each, resuspend in 50 μl 1× loading buffer, and incubate at 100 °C for 8 min. Throw beads away and analyze by immunoblotting.

Where [5] appears, read: 20 mg kg^–1 i.p. every other day.

For the substance “H-YGRKKRRQRRRYNLRSRTVLCGTCGQPADKASASGSGAQSPQNCSIM-OH (cysteines drawn unpaired) [UPCP, unique progerin C-terminal peptide]”, the “bodyweight, female” value with Lmna^G609G/G609G mice [1] (female) was “slow down the bodyweight loss”. In addition, the “bodyweight, male” value in the assay on Lmna^G609G/G609G mice [1] (male) is reported as “increase the bodyweight”. Moreover, the mobility result in the assay with Lmna^G609G/G609G mice [2] (20 mg kg^–1 i.p. every other day, open field, 20 min) was “enhanced the mobility”. Also, the Distance in the assay on Lmna^G609G/G609G mice [2] (female mice, Fig. 6g) is 3465.62 cm and 4842.39 cm and 4480.91 cm and 4399.08 cm and 3236.68 cm and 4440.93 cm; in the assay with Lmna^G609G/G609G mice [2] (male mice, Fig. 6h), 5127.23 cm and 4324.53 cm and 5298.93 cm and 5261.99 cm and 4436.52 cm and 3525.05 cm. For the same substance, the dermal fat loss entry in assay [3] (setting [5]) is “improved”. In addition, in assay [3] (setting [5]), the epidermal thinning entry was “improved”. For the same substance, the “subcutaneous fat layers, Mean” value amounted to 0.2193 mm in assay [3] (sample 1, mean of 3 measurements); 0.1593 mm in assay [3] (sample 2, mean of 3 measurements); 0.1467 mm in assay [3] (sample 3, mean of 3 measurements). Moreover, the subcutaneous fat layers in assay [3] (sample 1, measurement 1) is 0.2 mm; in assay [3] (sample 1, measurement 2), 0.243 mm; in assay [3] (sample 1, measurement 3), 0.215 mm; in assay [3] (sample 2, measurement 1), 0.146 mm; in assay [3] (sample 2, measurement 2), 0.185 mm; in assay [3] (sample 2, measurement 3), 0.147 mm. Further, the subcutaneous fat layers in assay [3] (sample 3, measurement 1) amounted to 0.174 mm; in assay [3] (sample 3, measurement 2), 0.153 mm; in assay [3] (sample 3, measurement 3) it was 0.113 mm. In addition, the “binding of BUBR1 to SAC proteins (BUB3 or CDC20)” value in assay [4] is recorded as “did not block the binding of BUBR1 to other proteins such as PTBP1 or other SAC proteins (BUB3 or CDC20)”.
